Experimental data published in article PMC2180961 (The Journal of Experimental Medicine, 1977).
One block for each molecule: values may come before it.

Key:
rat mast cell chymase [1] = molecular target: T1, rat mast cell chymase (Rattus norvegicus, UniProt P09650); experiment: […]-casein proteolysis assay; format: biochemical
T1 sequence (P09650 21-260): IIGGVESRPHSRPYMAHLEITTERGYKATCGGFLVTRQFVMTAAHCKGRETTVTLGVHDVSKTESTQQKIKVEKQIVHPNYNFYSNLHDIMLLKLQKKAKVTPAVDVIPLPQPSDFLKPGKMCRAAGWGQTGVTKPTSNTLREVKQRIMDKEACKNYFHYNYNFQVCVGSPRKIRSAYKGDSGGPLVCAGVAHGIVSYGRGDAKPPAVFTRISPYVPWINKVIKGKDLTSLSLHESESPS

rat mast cell chymase [2] = molecular target: T1, rat mast cell chymase; experiment: […]-casein proteolysis assay; format: biochemical; conditions: read-out: % inhibition at 300 mM
[3] = tested on: CCOC(=O)[C@H](Cc1ccc(O)cc1)NC(=O)c1ccccc1; experiment: purified protein; conditions: 25 C, same experiment as chymase, unit M not printed beside this value
purified protein = substrate: CCOC(=O)[C@H](Cc1ccc(O)cc1)NC(=O)c1ccccc1; experiment: purified protein; format: biochemical, Rattus norvegicus; conditions: 25 C, abstract and summary print 1.5 x 10^-3 M (apparent Km)

Molecule: NCCc1c[nH]c2ccc(O)cc12 [5-HT]
IC50 (rat mast cell chymase [1]): 3 mM

inhibition at 300000 µM (rat mast cell chymase [2]): 20%
Molecule: NCCc1c[nH]cn1 [histamine]

Molecule: alpha-chymotrypsin (Bos taurus)
Km [3]: 1170 µM

B1: rat mast cell chymase (Rattus norvegicus) (protein)
chain: T1 sequence (P09650 21-260)
Km (purified protein): 1560 µM
